We go through one compound from article PMC7956560, “New 3-Aryl-2-(2-thienyl)acrylonitriles with High Activity Against Hepatoma Cells” (International Journal of Molecular Sciences, 2021).

Series [1] relates to human HepG2 hepatoblastoma cells. As to the kind of experiment: Growth inhibition, crystal violet staining, HepG2. It is filed as cell-based. To be noted: 48 h incubation, mean ± SD, read-out: Anti-proliferative activity IC50, HepG2. On the procedure:
(§1) The well-differentiated p53 wild-type human hepatoblastoma cell line HepG2 (ATCC# 8065) and the highly differentiated p53 mutated human hepatocellular carcinoma cell line Huh-7 (JCRB#0403) were grown in RPMI 1640 medium supplemented with 10% fetal bovine serum and 100 U/mL penicillin and […] streptomycin. Murine AML-12 hepatocytes were obtained from ATCC (CRL-2254) and grown in DMEM/F-12 Glutamax medium supplemented with 10% fetal bovine serum, 10 µg/mL insulin, 5.5 µg/mL transferrin, 5 ng/mL selenium (Gibco ITS-G 100X) and 40 ng/mL dexamethasone (Sigma-Aldrich). All cell lines were incubated in a 37 °C, 5% CO2, 95% humidified atmosphere.
(§2) Treatment-induced changes in cell number were evaluated by crystal violet staining, as previously described. Briefly, 1.500 cells per well were seeded in 96-well plates for 24 h at 37 °C, 5% CO2. For the experiments with HepG2 and Huh-7 cell lines, cells were incubated with rising concentrations (0–20 µM) of the new compounds (1a–1o) for 48 h. AML12-cells were treated with compounds 1a, 1b, 1c, 1e, 1i and 1j for 48 h and at concentrations ranging from 0.5–64 µM. Thereafter, the cells were fixed with 1% glutaraldehyde and stained with 0.1% crystal violet (Sigma-Aldrich). The unbound dye was removed by rinsing with water. Bound crystal violet was solubilized with 0.2% Triton X-100 (Sigma-Aldrich). Light extinction of crystal violet, which increases linearly with cell number, was analyzed at 570 nm using an ELISA-Reader (Dynex Technologies, Denkendorf, Germany). All experiments were carried out in duplicate or triplicate.

The subject of another series is human Huh-7 HCC cells. As to the kind of experiment: Growth inhibition, crystal violet staining, Huh-7. The conditions noted are these: 48 h incubation, mean ± SD, read-out: Anti-proliferative activity IC50, Huh-7. The format is cell-based. On the procedure:
as §1, §2

Series [2] relates to non-malignant murine AML-12 hepatocytes. The series can be described thus: Growth inhibition, crystal violet staining, AML-12. It is filed as cell-based. How it is done:
as §1, §2

The next series concerns HepG2 cells. As to the kind of experiment: Colony-formation assay. It is filed as cell-based, human. How it is done: HepG2 cells were seeded in 6-well plates at a density of 300 cells/well and allowed to attach overnight. […] Then, the plates were washed twice with PBS, fixed with 4% formaldehyde for 1 h, and stained with 0.5% crystal violet for 3 min. Excessive crystal violet was washed out and the colonies were counted under the microscope. A colony was defined as a cell aggregate with 50 or more cells. Representative images were taken with a kappa digital camera system (Kappa Optronics GmbH, Germany). A total of n = 3 experiments were performed, and significance was tested by one-way ANOVA assays.

The subject of series [3] is caspase-3 activity of HepG2 cells. As to the kind of experiment: Apoptosis-specific caspase-3 activity. To be noted: HepG2, 1 and 10 µM, 24 h. It is filed as cell-based, human. How it is done:
Changes in caspase-3 activity were measured by the cleavage of the fluorogenic substrate AC-DEVD-AMC (EMD Millipore, Billerica, MA, USA), as described previously. After 24 h of incubation with 1a, 1b, 1c, 1e and sorafenib (1 and 10 µM) the cells were harvested and lysed with lysis buffer. Subsequently, the lysates were incubated for 1 h at 37 °C with a substrate solution containing 20 μg/mL AC-DEVD-AMC, 20 mM HEPES, 10% glycerol and 2 mM DTT at pH 7.5. Substrate cleavage was measured fluorometrically using a Varioskan Flash Fluorometer (Thermo Fisher Scientific, Waltham, MA, USA; filter sets: ex 360/40 nm, em 460/10 nm). n = 3 independent measurements were performed in triplicate, and data are given as the mean percentage increase ± SD above control, which was set 100%.

The next series has as its target T1, CLK1 (Homo sapiens, UniProt P49759).
T1 construct: purchased Eurofins KinaseProfiler service (Eurofins, France)
The series can be described thus: Enzymatic kinase assay (Eurofins KinaseProfiler). It is filed as biochemical. To be noted: 10 µM compound, cell-free. How it is done: (§3) The kinase inhibiting potency of compound 1a, 1b and 1c (10 µM) was screened in a cell-free kinase assay, which consisted of a custom panel of 43 human protein kinases for 1c (listed in Figure 5A), as well as a subpanel of six kinases for 1a and 1b (Figure 5B). The initial panel was chosen to screen the lead compound 1c based on the union of two strategies. A total of 29 kinases were selected based on the correlated results of three in silico target prediction methods including structure- as well as ligand-based techniques and 20 kinases because of their relevance for HCC (note that six kinases were part of both strategies).
(§4) The assay was performed by Eurofins KinaseProfilerTM service (Eurofins, France) and the determination of enzymatic activity was assessed as previously described. Additionally, an IC50 determination of compound 1c against the VEGFR-2 was performed with a concentration range of 0.003 to 30 µM.

The target of the next series is T2, EGFR (Homo sapiens, UniProt P00533).
T2 construct: purchased Eurofins KinaseProfiler service (Eurofins, France)
T2 sequence (P00533 25-1210): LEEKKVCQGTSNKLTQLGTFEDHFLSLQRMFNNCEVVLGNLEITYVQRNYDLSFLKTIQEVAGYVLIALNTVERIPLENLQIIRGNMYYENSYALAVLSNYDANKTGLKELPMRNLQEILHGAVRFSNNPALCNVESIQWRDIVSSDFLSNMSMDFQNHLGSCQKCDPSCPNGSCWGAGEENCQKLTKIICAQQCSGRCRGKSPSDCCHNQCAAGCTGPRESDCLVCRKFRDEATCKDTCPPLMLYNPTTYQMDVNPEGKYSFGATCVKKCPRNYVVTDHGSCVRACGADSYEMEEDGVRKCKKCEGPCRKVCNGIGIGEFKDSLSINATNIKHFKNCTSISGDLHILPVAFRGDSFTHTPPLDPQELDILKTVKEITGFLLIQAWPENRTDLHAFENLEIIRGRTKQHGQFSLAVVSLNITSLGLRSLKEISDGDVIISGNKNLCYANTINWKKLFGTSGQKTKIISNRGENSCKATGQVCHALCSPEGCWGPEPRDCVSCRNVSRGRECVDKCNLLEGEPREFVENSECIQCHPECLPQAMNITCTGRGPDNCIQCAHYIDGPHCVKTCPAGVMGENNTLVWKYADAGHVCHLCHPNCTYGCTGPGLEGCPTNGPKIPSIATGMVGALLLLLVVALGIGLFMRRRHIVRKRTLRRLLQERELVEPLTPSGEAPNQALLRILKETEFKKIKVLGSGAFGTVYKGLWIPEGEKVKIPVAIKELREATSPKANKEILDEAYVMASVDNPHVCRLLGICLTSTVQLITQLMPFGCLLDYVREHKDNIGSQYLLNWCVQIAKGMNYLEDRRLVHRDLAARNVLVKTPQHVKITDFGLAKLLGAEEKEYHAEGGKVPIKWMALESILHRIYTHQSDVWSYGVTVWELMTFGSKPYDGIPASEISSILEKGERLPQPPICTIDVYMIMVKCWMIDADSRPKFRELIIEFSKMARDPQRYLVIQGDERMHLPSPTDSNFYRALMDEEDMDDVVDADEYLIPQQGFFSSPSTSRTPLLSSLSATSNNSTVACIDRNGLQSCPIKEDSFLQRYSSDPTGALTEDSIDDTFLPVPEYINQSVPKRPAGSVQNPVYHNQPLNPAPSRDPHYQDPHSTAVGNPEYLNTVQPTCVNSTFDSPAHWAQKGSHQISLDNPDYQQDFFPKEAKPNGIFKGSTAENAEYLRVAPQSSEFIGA
The series can be described thus: Enzymatic kinase assay (Eurofins KinaseProfiler). It is filed as biochemical. The conditions noted are these: 10 µM compound, cell-free. How it is done:
as §3, §4

For another series, the target named is T3, IGF-1R (Homo sapiens, UniProt P08069).
T3 construct: purchased Eurofins KinaseProfiler service (Eurofins, France)
T3 sequence (P08069 31-1367): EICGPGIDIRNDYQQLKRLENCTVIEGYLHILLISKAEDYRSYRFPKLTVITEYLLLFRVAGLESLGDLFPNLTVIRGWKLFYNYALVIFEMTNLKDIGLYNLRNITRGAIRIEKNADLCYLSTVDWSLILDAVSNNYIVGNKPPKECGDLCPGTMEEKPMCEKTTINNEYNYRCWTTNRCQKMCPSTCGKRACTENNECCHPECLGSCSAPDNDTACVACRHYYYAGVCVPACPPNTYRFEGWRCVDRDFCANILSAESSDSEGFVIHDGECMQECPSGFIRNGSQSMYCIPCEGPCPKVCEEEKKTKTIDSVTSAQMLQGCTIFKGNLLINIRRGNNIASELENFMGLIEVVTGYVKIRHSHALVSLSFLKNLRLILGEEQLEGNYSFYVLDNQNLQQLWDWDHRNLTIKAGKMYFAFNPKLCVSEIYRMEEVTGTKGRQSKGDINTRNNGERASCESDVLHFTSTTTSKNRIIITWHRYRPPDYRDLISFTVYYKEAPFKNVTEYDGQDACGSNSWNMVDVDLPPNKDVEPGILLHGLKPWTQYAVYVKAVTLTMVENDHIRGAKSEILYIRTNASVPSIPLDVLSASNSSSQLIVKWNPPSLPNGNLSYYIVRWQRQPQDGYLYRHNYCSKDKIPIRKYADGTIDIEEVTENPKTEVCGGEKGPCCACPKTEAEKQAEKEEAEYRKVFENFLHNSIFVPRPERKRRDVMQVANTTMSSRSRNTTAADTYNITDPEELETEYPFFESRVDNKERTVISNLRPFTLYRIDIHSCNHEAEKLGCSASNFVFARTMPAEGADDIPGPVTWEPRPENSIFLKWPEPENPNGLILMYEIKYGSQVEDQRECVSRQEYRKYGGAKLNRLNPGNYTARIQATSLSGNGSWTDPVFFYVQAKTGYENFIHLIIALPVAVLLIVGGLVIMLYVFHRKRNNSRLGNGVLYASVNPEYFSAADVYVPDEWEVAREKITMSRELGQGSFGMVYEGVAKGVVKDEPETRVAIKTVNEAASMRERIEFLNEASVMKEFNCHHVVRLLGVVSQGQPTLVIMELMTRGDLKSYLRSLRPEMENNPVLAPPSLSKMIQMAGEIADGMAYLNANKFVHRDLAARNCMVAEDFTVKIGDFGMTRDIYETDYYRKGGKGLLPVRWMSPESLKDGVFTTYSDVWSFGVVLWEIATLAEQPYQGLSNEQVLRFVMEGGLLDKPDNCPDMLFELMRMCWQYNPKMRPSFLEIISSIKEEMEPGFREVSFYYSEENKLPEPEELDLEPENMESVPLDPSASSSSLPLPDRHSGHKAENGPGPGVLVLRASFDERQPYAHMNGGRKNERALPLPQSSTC
As to the kind of experiment: Enzymatic kinase assay (Eurofins KinaseProfiler). The format is biochemical. The conditions noted are these: 10 µM compound, cell-free. On the procedure: as §3, §4

Another series addresses T4, Pim-1 (Homo sapiens, UniProt P11309).
T4 construct: purchased Eurofins KinaseProfiler service (Eurofins, France)
As to the kind of experiment: Enzymatic kinase assay (Eurofins KinaseProfiler). It is filed as biochemical. To be noted: 10 µM compound, cell-free. On the procedure:
as §3, §4

The target in the next series is T5, Pim-2 (Homo sapiens, UniProt Q9P1W9).
T5 construct: purchased Eurofins KinaseProfiler service (Eurofins, France)
T5 sequence (Q9P1W9 whole entry): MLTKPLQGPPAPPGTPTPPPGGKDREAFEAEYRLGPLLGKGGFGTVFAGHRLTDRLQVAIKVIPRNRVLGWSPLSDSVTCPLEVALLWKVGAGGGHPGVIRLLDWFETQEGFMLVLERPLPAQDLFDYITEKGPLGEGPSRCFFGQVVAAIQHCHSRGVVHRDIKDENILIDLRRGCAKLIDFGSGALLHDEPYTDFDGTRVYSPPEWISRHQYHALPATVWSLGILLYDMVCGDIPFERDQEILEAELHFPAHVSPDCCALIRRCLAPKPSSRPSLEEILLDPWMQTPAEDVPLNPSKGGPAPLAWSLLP
The series can be described thus: Enzymatic kinase assay (Eurofins KinaseProfiler). The conditions noted are these: 10 µM compound, cell-free. It is filed as biochemical. How it is done:
as §3, §4

A further series concerns the target T6, VEGFR-1 (Homo sapiens, UniProt P17948).
T6 construct: purchased Eurofins KinaseProfiler service (Eurofins, France)
As to the kind of experiment: Enzymatic kinase assay (Eurofins KinaseProfiler). The conditions noted are these: 10 µM compound, cell-free. The format is biochemical. On the procedure:
as §3, §4

A further series concerns the target T7, VEGFR-2 (KDR) (Homo sapiens, UniProt P35968).
T7 construct: purchased Eurofins KinaseProfiler service (Eurofins, France)
The series can be described thus: Enzymatic kinase assay (Eurofins KinaseProfiler). It is filed as biochemical. On the procedure:
as §3, §4

The target in a further series is T8, c-KIT (Homo sapiens, UniProt P10721).
T8 construct: purchased Eurofins KinaseProfiler service (Eurofins, France)
As to the kind of experiment: Enzymatic kinase assay (Eurofins KinaseProfiler). It is filed as biochemical. The conditions noted are these: 10 µM compound, cell-free. How it is done:
as §3, §4

For the next series, the system named is FGFR. The series can be described thus: Enzymatic kinase assay (Eurofins KinaseProfiler). It is filed as biochemical, human. To be noted: 10 µM compound, cell-free. How it is done: as §3, §4
The test system of another series is PDGFR. As to the kind of experiment: Enzymatic kinase assay (Eurofins KinaseProfiler). The format is biochemical, human. To be noted: 10 µM compound, cell-free. How it is done: as §3, §4
The test system of series [4] is panel of 43 human protein kinases. As to the kind of experiment: Enzymatic kinase panel screening. The format is biochemical. To be noted: 10 µM compound. How it is done:
as §3, §4

T7 sequence (P35968 20-1356): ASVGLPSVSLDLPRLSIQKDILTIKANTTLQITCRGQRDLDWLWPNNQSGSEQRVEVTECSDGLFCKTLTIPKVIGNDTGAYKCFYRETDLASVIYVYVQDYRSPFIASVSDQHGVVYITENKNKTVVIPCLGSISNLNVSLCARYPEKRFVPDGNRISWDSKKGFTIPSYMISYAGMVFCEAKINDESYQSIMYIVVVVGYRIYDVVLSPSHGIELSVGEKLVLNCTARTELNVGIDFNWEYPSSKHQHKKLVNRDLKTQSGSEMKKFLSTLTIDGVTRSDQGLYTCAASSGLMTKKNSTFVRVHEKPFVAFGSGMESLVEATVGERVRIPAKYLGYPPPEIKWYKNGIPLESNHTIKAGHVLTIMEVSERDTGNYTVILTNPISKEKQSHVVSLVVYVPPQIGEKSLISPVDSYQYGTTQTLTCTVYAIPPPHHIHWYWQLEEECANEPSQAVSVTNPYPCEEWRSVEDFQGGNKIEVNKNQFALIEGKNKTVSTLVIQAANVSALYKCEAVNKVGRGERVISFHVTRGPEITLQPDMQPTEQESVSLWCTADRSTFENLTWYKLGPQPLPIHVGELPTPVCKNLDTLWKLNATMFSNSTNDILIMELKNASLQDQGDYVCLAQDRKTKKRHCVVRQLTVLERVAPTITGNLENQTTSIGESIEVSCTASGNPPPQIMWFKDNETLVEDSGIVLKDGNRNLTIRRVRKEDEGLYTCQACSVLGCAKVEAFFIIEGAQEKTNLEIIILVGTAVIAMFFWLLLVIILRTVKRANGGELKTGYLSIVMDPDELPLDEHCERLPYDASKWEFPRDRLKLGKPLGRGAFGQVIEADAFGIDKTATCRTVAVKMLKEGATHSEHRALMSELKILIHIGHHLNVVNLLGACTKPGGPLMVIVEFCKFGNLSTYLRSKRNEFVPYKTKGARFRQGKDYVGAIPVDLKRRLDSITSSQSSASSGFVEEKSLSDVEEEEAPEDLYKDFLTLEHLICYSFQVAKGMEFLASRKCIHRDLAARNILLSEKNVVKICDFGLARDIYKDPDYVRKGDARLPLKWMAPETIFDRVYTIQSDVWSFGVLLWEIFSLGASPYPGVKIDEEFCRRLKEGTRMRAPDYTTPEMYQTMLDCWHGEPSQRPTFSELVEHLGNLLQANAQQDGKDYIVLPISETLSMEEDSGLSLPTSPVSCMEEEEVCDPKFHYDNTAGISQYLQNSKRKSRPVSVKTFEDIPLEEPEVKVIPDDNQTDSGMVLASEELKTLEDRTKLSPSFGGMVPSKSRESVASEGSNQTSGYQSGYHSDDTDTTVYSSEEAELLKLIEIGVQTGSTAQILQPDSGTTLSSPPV
T4 sequence (P11309 whole entry): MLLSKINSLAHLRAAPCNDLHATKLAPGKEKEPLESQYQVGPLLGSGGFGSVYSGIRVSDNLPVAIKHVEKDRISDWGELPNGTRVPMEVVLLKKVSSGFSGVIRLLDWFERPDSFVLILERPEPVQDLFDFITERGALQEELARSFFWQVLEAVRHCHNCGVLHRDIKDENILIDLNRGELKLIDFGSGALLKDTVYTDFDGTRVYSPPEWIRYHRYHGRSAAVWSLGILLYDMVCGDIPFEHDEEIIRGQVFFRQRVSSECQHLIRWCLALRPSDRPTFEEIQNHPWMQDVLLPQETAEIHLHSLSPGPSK
T1 sequence (P49759 whole entry): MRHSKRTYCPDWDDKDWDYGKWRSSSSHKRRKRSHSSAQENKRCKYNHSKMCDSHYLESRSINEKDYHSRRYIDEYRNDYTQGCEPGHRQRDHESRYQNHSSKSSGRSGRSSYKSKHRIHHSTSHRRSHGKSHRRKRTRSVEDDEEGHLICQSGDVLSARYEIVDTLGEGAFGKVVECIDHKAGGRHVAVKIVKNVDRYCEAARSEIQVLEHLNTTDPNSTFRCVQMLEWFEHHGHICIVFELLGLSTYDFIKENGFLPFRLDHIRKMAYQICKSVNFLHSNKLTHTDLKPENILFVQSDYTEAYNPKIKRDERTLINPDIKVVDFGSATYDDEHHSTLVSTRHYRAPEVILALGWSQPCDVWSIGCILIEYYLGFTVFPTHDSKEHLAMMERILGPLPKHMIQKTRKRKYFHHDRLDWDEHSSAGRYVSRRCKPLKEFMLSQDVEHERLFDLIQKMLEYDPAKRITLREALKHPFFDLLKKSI

A word on the IC50: it is the concentration needed to halve the response being measured. A word on the inhibition: it is the percentage by which the read-out fell short of the control. Low values mean little suppression, high ones strong suppression. Turning to `COc1ccc(C=C(C#N)c2cccs2)cc1O` [Compound 1c, 2-[1-Cyano-2-(3-hydroxy-4-methoxyphenyl)-(E)-ethenyl)]-thiophene], the IC50 in series [1] came to 550 ± 260 nM; in the series on human Huh-7 HCC cells, 320 ± 150 nM; in series [2] (Mus musculus, AML12, 48 h incubation, mean ± SD, read-out: Anti-proliferative activity IC50, AML-12), 1810 ± 310 nM; at VEGFR-2 (KDR) (concentration range 0.003 to 30 µM, read-out: IC50 against VEGFR-2), 3320 nM. Further, the “IC50 against AML-12 hepatocytes relative to hepatoma cells” value in [2] (AML-12 vs hepatoma cells (HepG2, Huh-7), 48 h) was “up to 10 fold”. In the series on HepG2 cells (1, 5, 10 µM, 14 days), the “effect on HepG2 colony formation (in words)” value is given as “significantly inhibited HepG2 colony formation”. Moreover, the “inhibition of colony formation” value with HepG2 cells (HepG2, after two weeks) is reported as roughly 100%. Besides, the “caspase-3 activity (in words)” value in series [3] was “dose-dependently induced caspase-3 activity”. Also, the inhibition at 10 µM against CLK1 was 69%; against Pim-1, 71%; on Pim-2, 60%; at VEGFR-1 it was 75%; against VEGFR-2 (KDR) (10 µM compound, cell-free), 89%; on c-KIT, 61%. Also, the “inhibition of EGFR (in words)” value against EGFR was “no relevant inhibition”. Further, the “inhibition of IGF-1R (in words)” value against IGF-1R is on record as “no relevant inhibition”. Further, in the series on FGFR, the “inhibition of FGFR (in words)” value is recorded as “no relevant inhibition”. In the series on PDGFR, the “inhibition of PDGFR (in words)” value is on record as “no relevant inhibition”. The “number of the 43 kinase targets inhibited by more than 50%” value in series [4] is recorded as “six”.
